Patent US4311709A, “Loweralkyl substituted diphenyl polyamine as an antimicrobial agent” (priority 1979, dated 1982)

Assays:
[1] = tested on: Gram positive, gram negative bacteria, certain yeasts and various fungi; test: Antimicrobial spectrum: bacteria, yeasts and fungi destroyed or rendered static; assay type: cell-based
[2] = tested on: gram negative pathogens such as Pseudomonas species; settings: background statement; cited from earlier work
E. coli [3] = test: MIC on Mueller-Hinton agar plates, mastitis pathogens; assay type: cell-based; settings: Escherichia coli; 18-24 hours at 37° C.; less than one colony per plate; duplicate
Procedure: (§1) The products of this inventions have a broad inhibitory spectrum and high potency. One test system employed seven different mastitis pathogens inoculated onto separate Mueller-Hinton agar plates which contained 1, 5, 10, 20, 40, 80 or 100 mcg./ml. of the cited dihydrochloride final concentration. After incubation for 18-24 hours at 37° C., the minimal inhibitory concentration was determined as that showing less than one colony per plate; all assays were made in duplicate. The MIC's in mcg./ml. observed were: Streptococcus dysgalactiae, 1; Streptococcus uberis, 1; Streptococcus agalactiae, 1; S. aureus, 5; E. coli, 5; Klebsiella sp., 5; and Pseudomonas aeruginosa, 80.

Klebsiella sp. [4] = test: as above; assay type: cell-based; settings: 18-24 hours at 37° C., less than one colony per plate, duplicate
Procedure: as §1

Pseudomonas aeruginosa [5] = test: as above; assay type: cell-based; settings: 18-24 hours at 37° C., less than one colony per plate, duplicate
Procedure: as §1

S. aureus [6] = test: as above; assay type: cell-based; settings: Staphylococcus aureus; 18-24 hours at 37° C.; less than one colony per plate; duplicate
Procedure: as §1

Streptococcus agalactiae [7] = test: as above; assay type: cell-based; settings: 18-24 hours at 37° C., less than one colony per plate, duplicate
Procedure: as §1

[8] = tested on: Streptococcus dysgalactiae; test: as above; assay type: cell-based; settings: 18-24 hours at 37° C., less than one colony per plate, duplicate
Procedure: as §1

Streptococcus uberis [9] = test: as above; assay type: cell-based; settings: 18-24 hours at 37° C., less than one colony per plate, duplicate
Procedure: as §1

E. coli [10] = test: Excised cow's udder teat dip in vitro (modified National Mastitis Council's Protocol A); settings: Escherichia coli, 10 min, 0.5% solution
Procedure: (§2) Additional efficacy studies were made using a laboratory modification of the National Mastitis Council's Protocol A with excised cow's udder in vitro. Prepared teats were dipped to a depth of approximately 15 mm. into a skim milk inoculum containing the test bacteria and then allowed to drain for 5 minutes. Then each teat was dipped into a distilled water solution of the cited dihydrochloride salt using concentrations which ranged from 0.05 up to 1% to a depth of 25 mm. After a period of 10 minutes the removal of any surviving organisms was accomplished by rinsing the teats using 5 ml. of a quenching solution of lecithin (0.05%), tween-80 (0.5%) and sodium thiosulfate (0.5%). The rinse solutions were diluted in sterile saline, plated on an appropriate medium and incubated at 37° C. for 18-20 hours. Colonies were then counted for only those plates with 15-300 colonies, and all dilutions were plated in duplicate. The percent reduction in microorganisms on the teat surfaces was determined using as controls the inoculated teats dipped in sterile distilled water. […] A 0.1% solution caused a 99% reduction for Pseudomonas aeruginosa.

Klebsiella sp. [11] = test: as above; settings: 10 min, 0.5% solution
Procedure: as §2

Pseudomonas aeruginosa [12] = test: as above; settings: 10 min
Procedure: as §2

S. aureus [13] = test: as above; settings: Staphylococcus aureus, 10 min, 0.5% solution
Procedure: as §2

Streptococcus agalactiae [14] = test: as above; settings: 10 min, 0.5% solution
Procedure: as §2

[15] = tested on: Streptococcus dysgalactiae; test: as above; settings: 10 min, 0.5% solution
Procedure: as §2

Streptococcus uberis [16] = test: as above; settings: 10 min, 0.5% solution
Procedure: as §2

in vivo = settings: mouse, mice, oral, 100 mg./ml. in 1% aqueous methylcellulose (100 cps), read-out: acute oral LD50
Text: (§3) Thus instead of contributing to or initiating skin cracking and drying the diaminopropanol derivative should promote healing of damaged skin areas whether inflicted mechanically, by weather conditions or as the result of exposure to toxic chemical treatments.

[17] = tested on: intact or abraded dorsal skin of shaved areas (rabbits); test: Skin irritation, occlusive dressing 24 hours; assay type: in vivo
Text: as §3

eye = settings: in vivo
Text: as §3

[18] = Residues in milk after application to the udder; assay type: in vivo, cow
Text: The sensitivity of the analytical method employed met the stringent criteria set by various governmental agencies.

[19] = Toxicity and skin irritation, overall; assay type: in vivo
Text: as §3

With `CC(C)c1ccc(CCC(CCc2ccc(C(C)C)cc2)NCC(O)CN)cc1` (stereo not shown) [Example 1, 1-Amino-3-{{3-[4-(1-methylethyl)phenyl]-1-{2-[4-(1-methylethyl)phenyl]ethyl}propyl}amino]-2-propanol] the “concentrations by which many are controlled” value ([1]; many organisms) was “one to one-hundred” and the “concentrations by which bacteria, yeasts and fungi are destroyed or rendered static” value ([1]; overall range) was “less than one to one-thousand”.

In the case of `[H]/N=C(\N/C(=N/[H])NCCCCCCNC(=N)NC(=N)Nc1ccc(Cl)cc1)Nc1ccc(Cl)cc1` [chlorhexidine], the “effectiveness against gram negative pathogens” value [2] is given as “poorly effective”.

Work on `CC(C)c1ccc(CCC(CCc2ccc(C(C)C)cc2)NCC(O)CN)cc1.Cl.Cl.O` (stereo not shown) [cited dihydrochloride, 1-amino-3-{{3-[4-(1-methylethyl)phenyl]-1-{2-[4-(1-methylethyl)phenyl]ethyl}propyl}amino]-2-propanol dihydrochloride monohydrate] yielded an MIC (E. coli [3]) of 5 µg/mL, an MIC (Klebsiella sp. [4]) of 5 µg/mL and an MIC (Pseudomonas aeruginosa [5]) of 80 µg/mL. It also gave an MIC (S. aureus [6]) of 5 µg/mL, an MIC (Streptococcus agalactiae [7]) of 1 µg/mL and an MIC [8] of 1 µg/mL. It also gave an MIC (Streptococcus uberis [9]) of 1 µg/mL, a killing at 0.5 % (E. coli [10]) of over 99.8% and a killing at 0.5 % (Klebsiella sp. [11]) of over 99.8%. For the same compound, the killing at 0.1 % (Pseudomonas aeruginosa [12]; 0.1% solution, read-out: reduction) was 99%, the killing at 0.5 % (Pseudomonas aeruginosa [12]; 0.5% solution) was over 99.8% and the killing at 0.5 % (S. aureus [13]) was 98 to 99.8%. The killing at 0.5 % (Streptococcus agalactiae [14]) was over 99.8%, the killing at 0.5 % [15] was 98 to 99.8% and the killing at 0.5 % (Streptococcus uberis [16]) was over 99.8%. For the same compound, the LD50 (in vivo) was 1300 mg/kg, the skin irritation ([17]; 1% solution in distilled water, intact or abraded skin, 24 hours occlusive, observed two weeks) was “essentially non-irritating” and the skin irritation ([17]; 5% in distilled water) was “slightly irritating”. The “signs of skin irritation remaining” value ([17]; 5% in distilled water, after seven days) was “no signs remaining after seven days”, the eye irritation (eye) was “very slightly irritating” and the “time for eye effects to disappear” value (eye) was at most 24 h. For the same compound, the “residues in the milk” value ([18]; 1% solution applied to the udder, preliminary experiments) was “no detectable residues”, the skin penetration ([18]; bovine) was “appears unable to penetrate the skin” and the “skin irritation, overall” value ([19]; in vivo) was “practically non-irritating on skin”. The toxicity ([19]; overall statement) was “low toxicity”.
